Assay type in all cases: in vivo
One test relates to Myzus persicae. The test can be described thus: Insecticidal test, Myzus persicae (aphids), contact. Particulars: 72 h, Chinese Cabbage leaf, 3 days, read-out: grading of mortality, MP. The procedure:
(§1) The activity of the Product was determined using a variety of insect and acarine pests. The Product was used in the form of liquid preparations containing 500, 250 or 100 parts per million (ppm) by weight of the Product. The preparations were made by dissolving the Product in acetone and diluting the solutions with water containing 0.01% by weight of a wetting agent sold under the trade name "LISSAPOL" NX until the liquid preparations contained the required concentratio of the Product. "Lissapol" is a Registered Trade Mark.
(§2) The test procedure adopted with regard to each pest was basically the same and comprised supporting a number of the pests on a medium which was usually a host plant or a foodstuff on which the pests feed, and treating either or both the pests and the medium with the preparations. The mortality of the pests was then assessed at periods usually varying from one to three days after the treatment.
(§3) The results of the tests are given in Table IV for each of the Products, at the rate in parts per million given in the second column as a grading of mortality designated as A, B or C wherein A indicates 80-100% mortality or knockdown (70-100% in the case of Spodoptera exigua), B indicates 50-79% mortality or knockdown (50-69% in the case of Spodoptera exigua) and C indicates less than 50% mortality or knockdown.
(§4) In Table IV the pest organism used is designated by a letter code and the pest species, the support medium or food, and the type and duration of test is given in Table III.

The next test relates to Nilaparvata lugens. The test can be described thus: Insecticidal test, Nilaparvata lugens (brown planthopper), contact. Particulars: 72 h, Cabbage leaf, 3 days, read-out: grading of mortality, NL. The procedure: as §1, §2, §3, §4
Test [1] relates to Musca domestica. The test is described as follows: Knockdown test, Musca domestica (houseflies - adults). Particulars: cotton wool/sugar, 4 hours, read-out: grading of knockdown, MD/KD. As to the method: as §1, §2
In the case of the species Musca domestica (housefly), additional tests to determine the knockdown effect of the compounds were performed.
as §3, §4

Test [2] concerns Musca domestica. The test can be described thus: Insecticidal test, Musca domestica (houseflies - adults), contact. Particulars: 24 h, cotton wool/sugar, 1 day, read-out: grading of mortality, MD. As to the method: as §1, §2, §3, §4
The subject of another test is Blattella germanica. The test can be described thus: Insecticidal test, Blattella germanica (cockroach nymphs), residual. Particulars: 72 h, plastic pot, 3 days, read-out: grading of mortality, BG. As to the method: as §1, §2, §3, §4
For the next test, the system named is Heliothis virescens. The test is described as follows: whole plant or invertebrate. Particulars: in Gossypium hirsutum, 72 h, read-out: grading of mortality, HV. The procedure:
as §1, §2, §3, §4

Another test has as its system Diabrotica balteata. The test is described as follows: Insecticidal test, Diabrotica balteata (rootworm larvae), residual. Particulars: 72 h, filter paper/maize seed, 3 days, read-out: grading of mortality, DB. The procedure: as §1, §2, §3, §4

A word on the mortality: it is the percentage killed.

`CCOc1ccc(C(F)(COCc2c(F)c(F)c(C)c(F)c2F)C(F)(F)F)cc1` (centres unmarked) [Compound 78, 1,1,1,2-Tetrafluoro-2-(4-ethoxyphenyl)-3-(4-methyl-2,3,5,6-tetrafluorobenzyloxy)propane]: the mortality at 250 ppm was less than 50% in the test with Myzus persicae; 80 to 100% in the test with Nilaparvata lugens; less than 50% in the test on Musca domestica [2]; 80 to 100% with Blattella germanica; 80 to 100% in the test on Heliothis virescens; 80 to 100% in the test with Diabrotica balteata. For the same molecule, in the test with Musca domestica [1], the pest or weed control at 250 ppm was less than 50%.

As to `CCOc1ccc(C(Cl)(COCc2c(F)c(F)c(C)c(F)c2F)C(F)(F)F)cc1` (centres unmarked) [Compound 39, 1,1,1-Trifluoro-2-chloro-2-(4-ethoxyphenyl)-3-(4-methyl-2,3,5,6-tetrafluorobenzyloxy)propane], the mortality at 250 ppm in the test on Myzus persicae is less than 50%; in the test with Nilaparvata lugens it was 80 to 100%; with Musca domestica [2] it was less than 50%; in the test with Blattella germanica, less than 50%; with Heliothis virescens, less than 50%; in the test on Diabrotica balteata, less than 50%. The pest or weed control at 250 ppm in the test with Musca domestica [1] was less than 50%.

For `OC(COCc1cccc(Oc2ccccc2)c1)(c1ccc(OC(F)(F)F)cc1)C(F)(F)F` (centres unmarked) [Compound 139, 1,1,1-trifluoro-2-(4-trifluoromethoxyphenyl)-3-(3-phenoxybenzyloxy)-propan-2-ol], the mortality at 500 ppm in the test with Myzus persicae was less than 50%; in the test on Nilaparvata lugens, less than 50%; in the test with Musca domestica [2] it was 80 to 100%; in the test with Blattella germanica, less than 50%; in the test with Heliothis virescens, 80 to 100%; with Diabrotica balteata it was 80 to 100%. Further, the pest or weed control at 500 ppm in the test with Musca domestica [1] lay within 80 to 100%.

For the molecule `CCOc1ccc(C(F)(COCc2cccc(Oc3ccccc3)n2)C(F)(F)F)cc1` (centres unmarked) [Compound 76, 1,1,1,2-Tetrafluoro-2-(4-ethoxyphenyl)-3-(6-phenoxy-2-pyridylmethyloxy)propane], the mortality at 500 ppm in the test on Myzus persicae, in the test on Nilaparvata lugens, in the test on Musca domestica [2], in the test on Blattella germanica, in the test on Heliothis virescens and in the test with Diabrotica balteata was 80 to 100% each time. For the same molecule, in the test with Musca domestica [1], the pest or weed control at 500 ppm lay within 80 to 100%.

On to `CCOc1ccc(C(O)(COCc2cccc(Oc3ccccc3)n2)C(F)(F)F)cc1` (centres unmarked) [Compound 141, 1,1,1-trifluoro-2-(4-ethoxyphenyl)-3-(6-phenoxy-2-pyridylmethyloxy)propan-2-ol], for which the mortality at 500 ppm in the test with Myzus persicae is less than 50%; in the test on Nilaparvata lugens, 50 to 79%; in the test with Musca domestica [2], 80 to 100%; in the test on Blattella germanica, less than 50%; with Heliothis virescens, 80 to 100%; with Diabrotica balteata, 50 to 79%. Also, the pest or weed control at 500 ppm in the test with Musca domestica [1] was in the range of 80 to 100%.

Consider `CCOc1ccc(C(F)(COCc2ccc(F)c(Oc3ccccc3)c2)C(F)(F)F)cc1` (centres unmarked) [Compound 77, 1,1,1,2-Tetrafluoro-2-(4-ethoxyphenyl)-3-(3-phenoxy-4-fluorobenzyloxy)propane], for which the mortality at 250 ppm in the test with Myzus persicae, in the test on Nilaparvata lugens, in the test on Musca domestica [2], with Blattella germanica, with Heliothis virescens and in the test with Diabrotica balteata was 80 to 100% throughout. Further, the pest or weed control at 250 ppm in the test with Musca domestica [1] was 80 to 100%.

As for `CCOc1ccc(C(O)(COCc2c(F)c(F)c(C)c(F)c2F)C(F)(F)F)cc1` (centres unmarked) [Compound 114, 1,1,1-Trifluoro-2-(4-ethoxyphenyl)-3-(4-methyl-2,3,5,6-tetrafluorobenzyloxy)propan-2-ol], the mortality at 100 ppm was less than 50% in the test with Myzus persicae; 50 to 79% in the test on Nilaparvata lugens; less than 50% in the test on Musca domestica [2]; less than 50% with Blattella germanica; less than 50% with Heliothis virescens; less than 50% in the test on Diabrotica balteata. For the same molecule, the pest or weed control at 100 ppm in the test with Musca domestica [1] was less than 50%.

Regarding `CCOc1ccc(C(Cl)(COCc2ccc(F)c(Oc3ccccc3)c2)C(F)(F)F)cc1` (centres unmarked) [Compound 40, 1,1,1-Trifluoro-2-chloro-2-(4-ethoxyphenyl)-3-(3-phenoxy-4-fluorobenzyloxy)propane], the mortality at 250 ppm with Myzus persicae, with Nilaparvata lugens, in the test with Musca domestica [2], with Blattella germanica, with Heliothis virescens and with Diabrotica balteata was 80 to 100% in each case. Besides, the pest or weed control at 250 ppm with Musca domestica [1] fell in the range of 80 to 100%.

`CCOc1ccc(C(COCc2ccc(F)c(Oc3ccccc3)c2)(OC(C)=O)C(F)(F)F)cc1` (centres unmarked) [Compound 149, 1,1,1-trifluoro-2-acetoxy-2-(4-ethoxyphenyl)-3-(3-phenoxy-4-fluorobenzyloxy)propane]: the mortality at 250 ppm in the test on Myzus persicae is less than 50%; in the test with Nilaparvata lugens, 50 to 79%; in the test on Musca domestica [2], less than 50%; in the test on Blattella germanica, less than 50%; with Heliothis virescens it was 50 to 79%; in the test with Diabrotica balteata it was less than 50%. In the test on Musca domestica [1], the pest or weed control at 250 ppm is less than 50%.

Take `CCOc1ccc(C(O)(COCc2ccc(F)c(Oc3ccccc3)c2)C(F)(F)F)cc1` (centres unmarked) [Compound 113, 1,1,1-Trifluoro-2-(4-ethoxyphenyl)-3-(4-fluoro-3-phenoxybenzyloxy)propan-2-ol]: the mortality at 250 ppm in the test on Myzus persicae is less than 50%; in the test with Nilaparvata lugens it was 50 to 79%; in the test on Musca domestica [2] it was 50 to 79%; in the test with Blattella germanica it was less than 50%; in the test on Heliothis virescens, less than 50%; with Diabrotica balteata, 80 to 100%. Also, the pest or weed control at 250 ppm with Musca domestica [1] lay in the range of 80 to 100%.

On to `CCOc1ccc(C(Cl)(COCc2cccc(Oc3ccccc3)n2)C(F)(F)F)cc1` (centres unmarked) [Compound 41, 1,1,1-Trifluoro-2-chloro-2-(4-ethoxyphenyl)-3-(6-phenoxy-2-pyridylmethyloxy)propane], for which the mortality at 500 ppm was 80 to 100% in the test on Myzus persicae; 80 to 100% with Nilaparvata lugens; 80 to 100% in the test on Musca domestica [2]; less than 50% in the test with Blattella germanica; 80 to 100% in the test with Heliothis virescens; 80 to 100% with Diabrotica balteata. The pest or weed control at 500 ppm with Musca domestica [1] lay within 80 to 100%.

Regarding `CCOc1ccc(C(COCc2cccc(Oc3ccccc3)n2)C(F)(F)F)cc1` (centres unmarked) [Compound 4, 1,1,1-Trifluoro-2-(4-ethoxyphenyl)-3-(6-phenoxy-2-pyridylmethyloxy)propane], the mortality at 100 ppm in the test on Myzus persicae, in the test with Nilaparvata lugens, in the test with Musca domestica [2], with Blattella germanica, in the test on Heliothis virescens and with Diabrotica balteata was 80 to 100% each time. Further, the pest or weed control at 100 ppm in the test on Musca domestica [1] lay within 80 to 100%.

Regarding `CCOc1ccc(C(COCc2ccc(F)c(Oc3ccccc3)c2)(OC)C(F)(F)F)cc1` (centres unmarked) [Compound 150, 1,1,1-trifluoro-2-methoxy-2-(4-ethoxyphenyl)-3-(3-phenoxy-4-fluorobenzyloxy)propane], the mortality at 250 ppm in the test on Myzus persicae is 50 to 79%; with Nilaparvata lugens, less than 50%; in the test on Musca domestica [2], less than 50%; with Blattella germanica, less than 50%; in the test on Heliothis virescens it was 80 to 100%; in the test with Diabrotica balteata it was 80 to 100%. Further, in the test with Musca domestica [1], the pest or weed control at 250 ppm is less than 50%.

As to `CCOc1ccc(C(F)(COCc2cccc(Oc3ccccc3)c2)C(F)(F)F)cc1` (centres unmarked) [Compound 75, 1,1,1,2-tetrafluoro-2-(4-ethoxyphenyl)-3-(3-phenoxybenzyloxy)propane], the mortality at 100 ppm was 50 to 79% in the test on Myzus persicae; 80 to 100% in the test with Nilaparvata lugens; 50 to 79% in the test with Musca domestica [2]; less than 50% in the test on Blattella germanica; less than 50% in the test on Heliothis virescens; 80 to 100% in the test on Diabrotica balteata. Besides, the pest or weed control at 100 ppm in the test on Musca domestica [1] is 80 to 100%.
